Laboratory results: patent US20030100109A1, “Methods and compositions for in vitro germination and propagation of polygonatum cirrhifolium royle” (priority 2001, published 2003)
Where “and” joins values, the source holds several entries; their conditions need not be identical. Equal values may be shown once.

Columns and labels:
[1] = system: Polygonatum cirrhifolium Royle seeds with emerged hypocotyl; test: Synchronization of germination: release of epicotyl, coleoptile and radicle from seeds with emerged hypocotyl; format: in vivo; settings: modified MS culture medium, 20° C., 16 hr photoperiod
Method: Germination was evaluated every three days by examining seeds for hypocotyl emergence. […] Seeds with emerged hypocotyl were transferred under aseptic conditions to the above defined basal culture medium containing gibberellic acid at 5, 25, 50 and 100 mg/L. Transferred plants were incubated in an environment having 8-16-hr days under about 2000 lux of light and about 8-16-hr nights in total darkness at a constant temperature of 20° C. ([…]) and at 50-60% RH. Illumination was provided by 40-watt cool, white fluorescent tubes. Germination synchronization as indicated by differentiated epicotyl with emergent coleoptile and radicle was recorded on daily basis. The consequent step of synchronization of germination is presented in table 3 in which epicotyl with emergent coleoptile and radicle is manifest under 8-16 hr photoperiod (light intensity 2000-3500 lux) at an incubation temperature of 20° C. (RH 50-60%). In this experiment seeds with emerged hypocotyl were transferred to the culture to modified MS basal culture medium containing of 2.2 g/L NH4NO3, 2.0 g/L KNO3, 0.44 g/l CaCl2.2H2P, 0.37 g/L MgSO4.7H20, 0.17 g/L KH2PO4, 37.25 mg/L Na2 EDTA, 27.8 mg/L FeSO4.7H20, 0.83 mg/L KI, 6.2 mg/L H3BO3, 22.3 mg/L MnSO4.4H20, 8.6 mg/L ZnSO4.7H20, 0.25 mg/L Na2MoO4.2H20, 0.025 mg/L CuSO4.5H2O, 0.025 mg/L CoCl2.6H20, 250 mg/L myo-inositol, 0.5 mg/L nicotinic acid, 0.5 mg/L pyridoxine HCl, 3 mg/L thiamine HCl, 2 mg/L glycine, 30 g/L sucrose and 7.5 g/L agar and supplemented with 4 concentrations of GA3 viz. […], 25, 50 and 100 mg/L. Cultures were incubated at 20° C. under 16 hr photoperiod in a growth chamber. there were four treatments in total and each treatment consisted of 15 replicates with 4 seeds with emerged hypocotyl in each replicate. The effect of various treatments on the release of epicotyl, coleoptile radicle and days to release/synchronization is described in table 3.100 mg/L of GA3 results in 100% synchronization after 11 days of culture.

[2] = system: Polygonatum cirrhifolium Royle secondary explants; test: De novo axillary bud differentiation and release of foliage leaves on MS medium with GA3, BAP and NAA; format: in vivo; settings: for Percentage axillary buds producing leaves / Percentage secondary-explants producing axillary buds / Mean number of axillary buds per secondary explant: MS medium, after 16 weeks of culture; for Mean number of axillary buds per secondary explant: ± SE
From the text: Cultures were maintained at 50-60% RH. Plants were subcultured every four weeks in both sets of experiments on the same media formulations. Observations were made periodically but final data was compiled after 16 weeks of culture. In still another embodiment of the present invention, results in table 4 and 5 show the influence of various concentrations and combinations of BAP, NAA and GA3 on the in vitro release of epicotyl dormancy indicated by the release of rosette of leaves and induction of de novo axillary bud differentiation and their sprouting at 20-24° C. under 10-16 hr photoperiod (2000-3500 lux) at 50-60% of RH. […] Each treatment consisted of 24 cultures. These were incubated at 20° C. under 16 hr photoperiod (2000 lux) at 60% RH. […] There is a concomitant increase in the elicitation of response with the increasing concentrations of GA3.

[3] = GA3 1. mg/L in combination and 1.0 mg/L of NAA
[4] = GA3 5. mg/L in combination and 1.0 mg/L of NAA
[5] = GA3 10. mg/L in combination and 1.0 mg/L of NAA
[6] = GA3 15. mg/L in combination and 1.0 mg/L of NAA
[7] = GA3 20. mg/L in combination and 1.0 mg/L of NAA

Compound: C=C1C[C@]23C[C@@]1(O)CC[C@H]2[C@@]12C=C[C@H](O)[C@@](C)(C(=O)O1)[C@H]2[C@@H]3C(=O)O [GA3, gibberellic acid]
- Days to release epicotyl, coleoptile & radicle ([1]; GA3 10 mg/L): 21 days
- Percent seeds with epicotyl, coleoptile & radicle ([1]; GA3 10 mg/L): 23.71 ± 2.00%
- Days to release epicotyl, coleoptile & radicle ([1]; GA3 25 mg/L): 18 days
- Percent seeds with epicotyl, coleoptile & radicle ([1]; GA3 25 mg/L): 78.23 ± 3.11%
- Days to release epicotyl, coleoptile & radicle ([1]; GA3 50 mg/L): 14 days
- Percent seeds with epicotyl, coleoptile & radicle ([1]; GA3 50 mg/L): 100.00 ± 0.00%
- Days to release epicotyl, coleoptile & radicle ([1]; GA3 100 mg/L): 11 days
- Percent seeds with epicotyl, coleoptile & radicle ([1]; GA3 100 mg/L): 100% and 100.00 ± 0.00%
- Percentage axillary buds producing leaves [2, 3]: 37.03%
- Percentage secondary-explants producing axillary buds [2, 3]: 16.67%
- Mean number of axillary buds per secondary explant [2, 3]: 2.70 ± 0.70
- Remarks ([2]; GA3 1. mg/L in combination and 1.0 mg/L of NAA, remark wraps over r12-r14: Epicotylar bulge swells forms rhizomatous base): Epicotylar bulge
- Percentage axillary buds producing leaves [2, 4]: 46.58— %
- Percentage secondary-explants producing axillary buds [2, 4]: 70.83%
- Mean number of axillary buds per secondary explant [2, 4]: 6.44 ± 1.04
- Percentage axillary buds producing leaves [2, 5]: 66.22%
- Percentage secondary-explants producing axillary buds [2, 5]: 87.50%
- Mean number of axillary buds per secondary explant [2, 5]: 9.06 ± 2.00
- Percentage axillary buds producing leaves [2, 6]: 77.12%
- Percentage secondary-explants producing axillary buds [2, 6]: 100.00%
- Mean number of axillary buds per secondary explant [2, 6]: 11.67 ± 1.96
- Percentage axillary buds producing leaves [2, 7]: 97.03%
- Percentage secondary-explants producing axillary buds [2, 7]: 100.00%
- Mean number of axillary buds per secondary explant [2, 7]: 8.96 ± 2.01
- Remarks ([2]; GA3 20. mg/L in combination and 1.0 mg/L of NAA, remark wraps over r18-r20: Rhizomatous base, callus induction): Rhizomatous
